Measurements: patent publication US20200077658A1, “Pesticidal Compounds” (BASF SE, priority 2016, published 2020)

Legend:
Format in all cases: in vivo
[1] = test system: yellow fever mosquito (Aedes aegypti); assay: whole plant or invertebrate; conditions: 48 h, larval mortality visually assessed after 2 days, read-out: mortality in comparison with untreated controls
Experimental: For evaluating control of yellow fever mosquito (Aedes aegypti) the test unit consisted of 96-well-microtiter plates containing 200 μl of tap water per well and 5-15 freshly hatched A. aegypti larvae.
The active compounds were formulated using a solution containing 75% (v/v) water and 25% (v/v) DMSO. Different concentrations of formulated compounds or mixtures were sprayed onto the insect diet at 2.5 μl, using a custom built micro atomizer, at two replications.
After application, microtiter plates were incubated at 28±1° C., 80±5% RH for 2 days. Larval mortality was then visually assessed.

[2] = test system: Orchid thrips (Dichromothrips corbetti); assay: Action on orchid thrips (Dichromothrips corbetti), floral-immersion technique; conditions: adult thrips, mortality 72 hours after treatment, read-out: mortality in comparison with untreated controls
Experimental: Dichromothrips corbetti adults used for bioassay were obtained from a colony maintained continuously under laboratory conditions. For testing purposes, the test compound is diluted in a 1:1 mixture of acetone:water (vol:vol), plus Kinetic® HV at a rate of 0.01% v/v.
Thrips potency of each compound was evaluated by using a floral-immersion technique. All petals of individual, intact orchid flowers were dipped into treatment solution and allowed to dry in Petri dishes. Treated petals were placed into individual re-sealable plastic along with about 20 adult thrips. All test arenas were held under continuous light and a temperature of about 28° C. for duration of the assay. After 3 days, the numbers of live thrips were counted on each petal. The percent mortality was recorded 72 hours after treatment.

[3] = test system: boll weevil (Anthonomus grandis); assay: Action on boll weevil (Anthonomus grandis), 96-well microtiter plate diet test; conditions: 120 h, egg and larval mortality after 5 days, read-out: mortality in comparison with untreated controls
Experimental: For evaluating control of boll weevil (Anthonomus grandis) the test unit consisted of 96-well-microtiter plates containing an insect diet and 5-10 A. grandis eggs.
The compounds were formulated using a solution containing 75% v/v water and 25% v/v DMSO. Different concentrations of formulated compounds were sprayed onto the insect diet at 5 μl, using a custom built micro atomizer, at two replications.
After application, microtiter plates were incubated at about 25±1° C. and about 75±5% relative humidity for 5 days. Egg and larval mortality was then visually assessed.

[4] = test system: Silverleaf Whitefly (Bemisia argentifoli) (Adults); assay: Action on silverleaf whitefly (Bemisia argentifoli) adults, sprayed cotton plants; conditions: Bemisia argentifolii, 72 h, 3 days after treatment, read-out: mortality in comparison with untreated controls
Experimental: (§1) The active compounds were formulated by a Tecan liquid handler in 100% cyclohexanone as a 10,000 ppm solution supplied in tubes. The 10,000 ppm solution was serially diluted in 100% cyclohexanone to make interim solutions. These served as stock solutions for which final dilutions were made by the Tecan in 50% acetone:50% water (v/v) into 5 or 10 ml glass vials. A nonionic surfactant (Kinetic®) was included in the solution at a volume of 0.01% (v/v). The vials were then inserted into an automated electrostatic sprayer equipped with an atomizing nozzle for application to plants/insects.
Cotton plants at the cotyledon stage (one plant per pot) were sprayed by an automated electrostatic plant sprayer equipped with an atomizing spray nozzle. The plants were dried in the sprayer fume hood and then removed from the sprayer. Each pot was placed into a plastic cup and about 10 to 12 whitefly adults (approximately 3-5 days old) were introduced. The insects were collected using an aspirator and a nontoxic Tygon® tubing connected to a barrier pipette tip. The tip, containing the collected insects, was then gently inserted into the soil containing the treated plant, allowing insects to crawl out of the tip to reach the foliage for feeding. Cups were covered with a reusable screened lid. Test plants were maintained in a growth room at about […] and about 20-40% relative humidity for 3 days, avoiding direct exposure to fluorescent light (24 hour photoperiod) to prevent trapping of heat inside the cup. Mortality was assessed 3 days after treatment, compared to untreated control plants.

[5] = test system: tobacco budworm (Heliothis virescens); assay: Action on tobacco budworm (Heliothis virescens), 96-well microtiter plate diet test; conditions: 120 h, egg and larval mortality after 5 days, read-out: mortality in comparison with untreated controls
Experimental: For evaluating control of tobacco budworm (Helliothis virescens) the test unit consisted of 96-well-microtiter plates containing an insect diet and 15-25 H. virescens eggs.
The compounds were formulated using a solution containing 75% v/v water and 25% v/v DMSO. Different concentrations of formulated compounds were sprayed onto the insect diet at 10 μl, using a custom built micro atomizer, at two replications.
After application, microtiter plates were incubated at about 28±1° C. and about 80±5% relative humidity for 5 days. Egg and larval mortality was then visually assessed.

[6] = test system: Diamond Back Moth (Plutella xylostella); assay: Action on diamond back moth (Plutella xylostella), cabbage leaf dip; conditions: foliar, 3rd instar larvae on dipped cabbage leaves, 72 hours after treatment, read-out: mortality in comparison with untreated controls
Experimental: The active compound is dissolved at the desired concentration in a mixture of 1:1 (vol:vol) distilled water:acetone. Surfactant (Kinetic® HV) is added at a rate of 0.01% (vol/vol).The test solution is prepared at the day of use.
Leaves of cabbage were dipped in test solution and air-dried. Treated leaves were placed in petri dishes lined with moist filter paper and inoculated with ten 3rd instar larvae. Mortality was recorded 72 hours after treatment. Feeding damages were also recorded using a scale of 0-100%.

[7] = test system: Southern Armyworm (Spodoptera eridania), 2nd Instar Larvae; assay: Action on southern armyworm (Spodoptera eridania), 2nd instar larvae, sprayed lima bean plants; conditions: 96 h, 2nd instar larvae on lima bean, 4 days after treatment, read-out: mortality in comparison with untreated controls
Experimental: as §1, with “into 10” for “into 5”, “or 20” for “or 10”
Lima bean plants (variety Sieva) were grown 2 plants to a pot and selected for treatment at the 1st true leaf stage. Test solutions were sprayed onto the foliage by an automated electrostatic plant sprayer equipped with an atomizing spray nozzle. The plants were dried in the sprayer fume hood and then removed from the sprayer. Each pot was placed into perforated plastic bags with a zip closure. About 10 to 11 armyworm larvae were placed into the bag and the bags zipped closed. Test plants were maintained in a growth room at about 250C and about 20-40% relative humidity for 4 days, avoiding direct exposure to fluorescent light (24 hour photoperiod) to prevent trapping of heat inside the bags. Mortality and reduced feeding were assessed 4 days after treatment, compared to untreated control plants.

CC(/C=N/N=C1\SCC(=O)N1c1ccccc1C(C)C)=C\c1ccc(N(C)c2ccc(OC(F)(F)F)cc2)nc1 [Compound C-12, (2Z)-3-(2-isopropylphenyl)-2-[(E)-[(E)-2-methyl-3-[6-[N-methyl-4-(trifluoromethoxy)anilino]-3-pyridyl]prop-2-enylidene]hydrazono]thiazolidin-4-one]
≥ 75%: mortality at 800 ppm [1] | mortality at 500 ppm [2] | mortality at 800 ppm [3] | mortality at 300 ppm [4] | mortality at 800 ppm [5] | mortality at 500 ppm [6] | mortality at 300 ppm [7]

CC(/C=N/N=C1\SCC(=O)N1c1ccccc1C(C)C)=C\c1cnc(Nc2ccc(OC(F)(F)F)cc2)nc1 [Compound C-3, (2Z)-3-(2-isopropylphenyl)-2-[(E)-[(E)-2-methyl-3-[2-[4-(trifluoromethoxy)anilino]pyrimidin-5-yl]prop-2-enylidene]hydrazono]thiazolidin-4-one]
≥ 75%: mortality at 800 ppm [1] | mortality at 500 ppm [2] | mortality at 800 ppm [3] | mortality at 300 ppm [4] | mortality at 800 ppm [5] | mortality at 500 ppm [6] | mortality at 300 ppm [7]

CO[C@@H]1[C@@H](OC)[C@@H](OC)C(O/N=C/C(C)=C/c2cnc(N(C)c3ccc(OC(F)(F)F)cc3)nc2)O[C@H]1C (stereo partly drawn) [Compound C-23, N-methyl-5-[(E,3E)-2-methyl-3-[(3R,4R,5S,6S)-3,4,5-trimethoxy-6-methyl-tetrahydropyran-2-yl]oxyimino-prop-1-enyl]-N-[4-(trifluoromethoxy)phenyl]pyrimidin-2-amine]
≥ 75%: mortality at 800 ppm [1] | mortality at 500 ppm [2] | mortality at 800 ppm [3] | mortality at 300 ppm [4] | mortality at 800 ppm [5] | mortality at 500 ppm [6] | mortality at 300 ppm [7]

CC(/C=N/N=C1\SCC(=O)N1c1ccccc1C(C)C)=C\c1cnc(N(C)c2ccc(OC(F)(F)F)cc2)nc1C [Compound C-17, (2Z)-3-(2-isopropylphenyl)-2-[(E)-[(E)-2-methyl-3-[4-methyl-2-[N-methyl-4-(trifluoromethoxy)anilino]pyrimidin-5-yl]prop-2-enylidene]hydrazono]thiazolidin-4-one]
≥ 75%: mortality at 800 ppm [1] | mortality at 500 ppm [2] | mortality at 800 ppm [3] | mortality at 300 ppm [4] | mortality at 800 ppm [5] | mortality at 500 ppm [6] | mortality at 300 ppm [7]

CC(C)c1ccccc1N1C(=O)CS\C1=N/N=C/C=C/c1cnc(N(C)c2ccc(OC(F)(F)F)cc2)nc1 [Compound C-5, (2Z)-3-(2-isopropylphenyl)-2-[(E)-[(E)-3-[2-[N-methyl-4-(trifluoromethoxy)anilino]pyrimidin-5-yl]prop-2-enylidene]hydrazono]thiazolidin-4-one]
≥ 75%: mortality at 800 ppm [1] | mortality at 500 ppm [2] | mortality at 800 ppm [3] | mortality at 300 ppm [4] | mortality at 800 ppm [5] | mortality at 500 ppm [6] | mortality at 300 ppm [7]

CC(/C=N/NC(=S)Nc1ccccc1C(C)C)=C\c1cnc(N(C)c2ccc(OC(F)(F)F)cc2)nc1 [Compound C-6, 1-(2-isopropylphenyl)-3-[(E)-[(E)-2-methyl-3-[2-[N-methyl-4-(trifluoromethoxy)anilino]pyrimidin-5-yl]prop-2-enylidene]amino]thiourea]
≥ 75%: mortality at 800 ppm [1] | mortality at 500 ppm [2] | mortality at 800 ppm [3] | mortality at 300 ppm [4] | mortality at 800 ppm [5] | mortality at 500 ppm [6] | mortality at 300 ppm [7]
